From US6767991B1, “Hepatitis C inhibitor peptides” (priority 1997, dated 2004) come the findings set out here.

*1 amine or outer side, *2 acyl side, *3 side chain or, on linkers, in order; H or OH if unused. Where a SMILES comes first, the peptide text is derived from it. [ ]: non-standard residue; d: D form. The star is where a group is joined. CH2(1-naphthyl) = c1ccc2c(C*)cccc2c1; Hyp = O=C(O)[C@@H]1C[C@@H](O)CN1; Chg = N[C@H](C(=O)O)C1CCCCC1; Suc = O=C(CCC(=O)[*:2])[*:1]; Nva = CCC[C@H](N)C(=O)O; X1 = c1ccc2cc(C*)ccc2c1; X4 = Brc1cc(Br)cc(C*)c1; Ac3c = NC1(C(=O)O)CC1; X6 = Ic1cccc(C*)c1; Bn = c1ccc(C*)cc1

T1 sequence (P26663 1027-1206, other chains not shown): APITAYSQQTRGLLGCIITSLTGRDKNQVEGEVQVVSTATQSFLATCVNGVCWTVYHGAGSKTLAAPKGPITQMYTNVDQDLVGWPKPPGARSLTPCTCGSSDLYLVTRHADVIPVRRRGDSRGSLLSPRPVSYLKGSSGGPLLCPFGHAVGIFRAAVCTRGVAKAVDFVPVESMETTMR

One experiment has as its target T1, HCV NS3 protease type 1b/NS4A cofactor peptide (Hepatitis C virus genotype 1b, UniProt P26663).
T1 construct: recombinant HCV NS3 protease (amino acid 1027 to 1206) was cloned in the pET11d bacterial expression vector; made in house; host or cells: E. coli BL21(DE3)pLysS
The experiment in a line: Recombinant HCV NS3 protease/NS4A cofactor peptide radiometric assay. The format is biochemical, HCV genotype 1b. Particulars: Table 1, unmarked values: NS3 protease/NS4A cofactor peptide radiometric assay; read-out: IC50. On the procedure:
Recombinant HCV NS3 Protease/NS4A Cofactor Peptide Radiometric Assay.
The enzyme was stored at −80° C., thawed on ice and diluted just prior to use in the assay buffer containing the NS4A cofactor peptide.
The substrate used for the NS3 protease/NS4A cofactor peptide radiometric assay, DDIVPC-SMSYTW [SEQ. ID NO. 2], is cleaved between the cysteine and the serine residues by the enzyme. The sequence DDIVPC-SMSYTW [SEQ. ID NO. 2] corresponds to the NS5A/NS5B natural cleavage site in which the cysteine residue in P2 has been substituted for a proline. The peptide substrate DDIVPC-SMSYTW [SEQ. ID NO. […] ID NO. […] [SEQ. ID NO. 5] (molar ratio enzyme: cofactor 1:100) in the absence or presence of inhibitors. The separation of substrate from products is performed by adding avidin-coated agarose beads to the assay mixture followed by filtration. […] ID NO. 4] product found in the filtrate allows for the calculation of the percentage of substrate conversion and of the percentage of inhibition.
Tris and Tris-HCl (UltraPure) were obtained from Gibco-BRL. Glycerol (UltraPure), MES and BSA were purchased from Sigma. TCEP was obtained from Pierce, DMSO from Aldrich and NaOH from Anachemia.
Assay buffer: 50 mM Tris HCl, pH 7.5, 30% (w/v) glycerol, 1 mg/mL BSA, 1 mM TCEP (TCEP added just prior to use from a 1 M stock solution in water).
Substrate: […] [SEQ. ID NO.
ID NO. 3] (˜1 nM final concentration).
The assay was performed in a 96-well polypropylene plate from Costar. Each well contained:
20 μL substrate/tracer in assay buffer;
10 μL±inhibitor in 20% DMSO/assay buffer;
10 μL NS3 protease 1b/NS4 cofactor peptide (molar ratio 1:100).
Blank (no inhibitor and no enzyme) and control (no inhibitor) were also prepared on the same assay plate.
The enzymatic reaction was initiated by the addition of the enzyme/NS4A peptide solution and the assay mixture was incubated for 40 min at 23° C. under gentle agitation. Ten (10) μL of 0.5N NaOH were added and 10 μL 1 M MES, pH 5.8 were added to quench the enzymatic reaction.
Twenty (20) μL of avidin-coated agarose beads (purchased from Pierce) were added in a Millipore MADP N65 filtration plate. The quenched assay mixture was transferred to the filtration plate, and incubated for 60 min at 23° C. under gentle agitation.
The plates were filtered using a Millipore MultiScreen Vacuum Manifold Filtration apparatus, and 40 μL of the filtrate was transferred in an opaque 96-well plate containing 60 μL of scintillation fluid per well.
The % inhibition was calculated with the following equation:
100-[(countsinh-countsblank)/(countsctl-countsblank)×100]
For `CCC[C@H](NC(=O)[C@@H]1CCCN1C(=O)[C@@H](NC(=O)[C@@H](NC(=O)[C@H](CC(=O)O)NC(=O)CCC(=O)O)[C@@H](C)CC)C(C)C)C(=O)O` [compound 130] (Suc-DIVP[Nva]-OH), the IC50 (usually the concentration at which inhibition is half-maximal) turned out to be 123 µM. As for `CC[C@H](C)[C@H](NC(=O)[C@H](CC(=O)O)NC(=O)[C@H](CC(=O)O)NC(C)=O)C(=O)N[C@H](C(=O)N1C[C@H](OCc2ccccc2)C[C@H]1C(=O)N[C@@H](CS)C(=O)O)C(C)C` [compound 121] (Ac-DDIV[Hyp](Bn)C-OH), the IC50 stood at 1.7 µM.

The experiment is the same for the next values; noted with them: Table 2, unmarked values: NS3 protease/NS4A cofactor peptide radiometric assay; read-out: IC50.
Turning to `CC[C@H](C)[C@H](NC(=O)[C@H](CCC(=O)O)NC(=O)[C@H](CC(=O)O)NC(C)=O)C(=O)N[C@H](C(=O)N1C[C@H](OCc2cccc(I)c2)C[C@H]1C(=O)NC1(C(=O)O)CC1)C(C)C` [compound 233] (Ac-DEIV[Hyp](X6)[Ac3c]-OH), the IC50 was found to be 0.14 µM. On to `CCC[C@H](NC(=O)[C@@H]1C[C@@H](OCc2ccccc2)CN1C(=O)[C@@H](NC(=O)[C@@H](NC(=O)[C@H](NC(=O)[C@H](CC(=O)O)NC(C)=O)C(C)C)[C@@H](C)CC)C(C)C)C(=O)O` [compound 202] (Ac-D[dV]IV[Hyp](Bn)[Nva]-OH), for which the IC50 came out at 0.93 µM. On the same count and under the same terms, with `CCC[C@H](NC(=O)[C@@H]1C[C@@H](OCc2ccccc2)CN1C(=O)[C@@H](NC(=O)[C@@H](NC(=O)[C@@H](CCC(=O)O)NC(=O)[C@H](CC(=O)O)NC(C)=O)C1CCCCC1)C(C)C)C(=O)O` [compound 211] (Ac-D[dE][Chg]V[Hyp](Bn)[Nva]-OH) the figure was 0.12 µM; with `CC(=O)N[C@H](C(=O)N[C@H](C(=O)N1C[C@H](OCc2ccccc2)C[C@H]1C(=O)N[C@@H](CS)C(=O)O)C(C)C)C1CCCCC1` [compound 261] (Ac-[Chg]V[Hyp](Bn)C-OH), 28 µM; with `CC(=O)N[C@H](C(=O)N[C@H](C(=O)N1C[C@H](Oc2ccccc2Br)C[C@H]1C(=O)NC1(C(=O)O)CC1)C(C)C)C1CCCCC1` [compound 239], 27 µM. The same measure, in the same setting: with `CC(=O)N[C@H](C(=O)N[C@H](C(=O)N1C[C@H](Oc2ccc(I)cc2)C[C@H]1C(=O)NC1(C(=O)O)CC1)C(C)C)C1CCCCC1` [compound 249] the figure was 9.7 µM; with `CCC[C@H](NC(=O)[C@@H]1C[C@@H](OCc2ccc3ccccc3c2)CN1C(=O)[C@@H](NC(=O)[C@@H](NC(=O)[C@H](CC(=O)O)NC(=O)[C@H](CC(=O)O)NC(C)=O)[C@@H](C)CC)C(C)C)C(=O)O` [compound 208] (Ac-DDIV[Hyp](X1)[Nva]-OH), 0.71 µM. The same measure, in the same setting: with `CC(=O)N[C@H](C(=O)N[C@H](C(=O)N1C[C@H](OCc2cc(Br)cc(Br)c2)C[C@H]1C(=O)NC1(C(=O)O)CC1)C(C)C)C1CCCCC1` [compound 272] (Ac-[Chg]V[Hyp](X4)[Ac3c]-OH) the figure was 27 µM; with `CCC[C@H](NC(=O)[C@@H]1C[C@@H](OCc2cccc3ccccc23)CN1C(=O)[C@@H](NC(=S)[C@@H](NC(=O)CNC(C)=O)[C@@H](C)CC)C(C)C)C(=O)O` [compound 236], 4 µM; with `CC(=O)N[C@H](C(=O)N[C@H](C(=O)N1C[C@H](OCc2cccc3ccccc23)C[C@H]1C(=O)NC1(C(=O)O)CC1)C1CCCCC1)C1CCCCC1` [compound 231] (Ac-[Chg][Chg][Hyp](CH2(1-naphthyl))[Ac3c]-OH), 2.6 µM. On to `CC(=O)N[C@@H](CC(=O)O)C(=O)N[C@H](CCC(=O)O)C(=O)N[C@H](C(=O)N[C@H](C(=O)N1C[C@H](OCc2cccc3ccccc23)C[C@H]1C(=O)NC1(C(=O)O)CC1)C(C)C)C1CCCCC1` [compound 215] (Ac-D[dE][Chg]V[Hyp](CH2(1-naphthyl))[Ac3c]-OH), for which the IC50 came to 0.014 µM. Take `CC(=O)N[C@H](C(=O)N[C@H](C(=O)N1C[C@H](OCc2ccccc2)C[C@H]1C(=O)NC1(C(=O)O)CC1)C1CCCCC1)C1CCCCC1` [compound 234] (Ac-[Chg][Chg][Hyp](Bn)[Ac3c]-OH): the IC50 was found to be 41 µM.
